Assay results published in paper PMC10191376, “Characterization of the L-arabinofuranose-specific GafABCD ABC transporter essential for L-arabinose-dependent growth of the lignocellulose-degrading bacterium Shewanella sp. ANA-3” (Microbiology, 2023).

What was measured:
GafASw (Shewana3_2073) [1] = assay: ITC, intrinsic fluorescence ([…]), DSF; assay type: binding, Shewanella sp. ANA-3
GafASm (Smb_21587) [2] = target: T1, GafASm (Smb_21587) (Sinorhizobium meliloti, UniProt Q926G2); assay: DSF thermal shift (ΔTm […] °C at […]); assay type: binding; conditions: read-out: ΔT m (°C) at 1.2 mM [ligand] / GafASm
T1 construct: gene SM_b21587
T1 sequence (Q926G2 entry or part of it): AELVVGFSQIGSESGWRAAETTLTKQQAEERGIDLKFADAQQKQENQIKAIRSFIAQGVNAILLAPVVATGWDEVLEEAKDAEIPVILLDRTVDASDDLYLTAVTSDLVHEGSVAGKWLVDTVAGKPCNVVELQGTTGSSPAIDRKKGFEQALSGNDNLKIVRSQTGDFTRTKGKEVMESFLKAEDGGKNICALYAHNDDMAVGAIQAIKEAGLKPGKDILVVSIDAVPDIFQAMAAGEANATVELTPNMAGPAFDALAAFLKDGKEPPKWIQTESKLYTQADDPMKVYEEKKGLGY

GafASm (Smb_21587) [3] = target: T1, GafASm (Smb_21587); assay: DSF thermal shift (ΔTm […] °C at […]); assay type: binding; conditions: read-out: ΔT m (°C) at 1.2 mM [ligand] / GafASm; remark: listed apart in the source
GafASm (Smb_21587) [4] = target: T1, GafASm (Smb_21587); assay: DSF thermal shift (ΔTm […] °C at […]), weak; assay type: binding; conditions: read-out: ΔT m (°C) at 1.2 mM [ligand] / GafASm
GafASw (Shewana3_2073) [5] = assay: crystal structure ([…] Å), ITC, intrinsic fluorescence, DSF; assay type: binding, Shewanella sp. ANA-3
GafASm (Smb_21587) [6] = target: T1, GafASm (Smb_21587); assay: DSF thermal shift (ΔTm […] °C at […]); assay type: binding; conditions: read-out: ΔT m (°C) at 1.2 mM [ligand] / GafASm; remark: listed apart in the source

**Q.** Which Kd (GafASw (Shewana3_2073) [1]) does the source give for `OC[C@H]1OC(O)[C@H](O)[C@H](O)[C@@H]1O` (stereo partly drawn) [D-allose] here?
**A.** Its Kd is 27.4 ± 4.32 µM.

**Q.** Which ΔTm at 1200 µM (GafASm (Smb_21587) [2]) does the source give for `C[C@H]1OC(O)[C@H](O)[C@@H](O)[C@H]1O` (stereo partly drawn) [D-fucose] here?
**A.** The ΔTm at 1200 µM was 11.8 ± 0.2 °C.

**Q.** `OC[C@H]1OC(O)[C@H](O)[C@@H](O)[C@H]1O` (stereo partly drawn) [D-galactose] was tested. Which ΔTm at 1200 µM (GafASm (Smb_21587) [3]) did it give?
**A.** The ΔTm at 1200 µM was 11.6 ± 0.2 °C.

**Q.** Which ΔTm at 1200 µM (GafASm (Smb_21587) [4]) does the source give for `OC[C@H]1OC(O)[C@@H](O)[C@@H](O)[C@H]1O` (stereo partly drawn) [D-talose] here?
**A.** The ΔTm at 1200 µM was 3.4 ± 0.2 °C.

**Q.** With `OC[C@@H]1OC(O)[C@H](O)[C@H]1O` (stereo partly drawn) [L-arabinofuranose] as the molecule, how does the Kd (GafASw (Shewana3_2073) [5]) read?
**A.** Its Kd is 5.8 ± 0.51 µM.

**Q.** Which ΔTm at 1200 µM (GafASm (Smb_21587) [6]) does the source give for `OC1OC[C@H](O)[C@H](O)[C@H]1O` (stereo partly drawn) [L-arabinose] here?
**A.** The ΔTm at 1200 µM was 14.4 ± 0.2 °C.
